The pKa is the pH at which an ionisable group is half protonated. A lower pKa goes with a stronger acid or weaker base. The term logD denotes the decadic logarithm of the distribution of all forms, ionised or not, between an organic phase and buffer at a given pH. High values mean a more lipophilic compound, low ones a more hydrophilic compound.

The target of one data set is T1, Cyclooxygenase (Bos taurus, UniProt O62664+O62698).
T1 sequence (O62664 whole entry): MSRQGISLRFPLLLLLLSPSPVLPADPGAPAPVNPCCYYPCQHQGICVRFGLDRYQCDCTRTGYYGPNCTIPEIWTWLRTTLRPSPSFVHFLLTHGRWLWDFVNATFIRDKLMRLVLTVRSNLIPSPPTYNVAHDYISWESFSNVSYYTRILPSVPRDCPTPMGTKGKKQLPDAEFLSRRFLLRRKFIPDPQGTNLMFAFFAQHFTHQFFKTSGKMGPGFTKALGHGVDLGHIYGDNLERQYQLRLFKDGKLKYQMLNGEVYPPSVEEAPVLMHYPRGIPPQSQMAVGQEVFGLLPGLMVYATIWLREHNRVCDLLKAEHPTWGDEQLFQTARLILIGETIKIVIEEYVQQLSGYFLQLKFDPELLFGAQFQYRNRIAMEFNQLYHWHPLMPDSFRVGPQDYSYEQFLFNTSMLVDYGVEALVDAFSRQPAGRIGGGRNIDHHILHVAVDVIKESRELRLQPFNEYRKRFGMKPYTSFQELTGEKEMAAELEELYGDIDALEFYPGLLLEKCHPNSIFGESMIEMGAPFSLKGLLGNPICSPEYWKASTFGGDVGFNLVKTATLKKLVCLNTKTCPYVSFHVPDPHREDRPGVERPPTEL
T1 sequence (O62698 whole entry): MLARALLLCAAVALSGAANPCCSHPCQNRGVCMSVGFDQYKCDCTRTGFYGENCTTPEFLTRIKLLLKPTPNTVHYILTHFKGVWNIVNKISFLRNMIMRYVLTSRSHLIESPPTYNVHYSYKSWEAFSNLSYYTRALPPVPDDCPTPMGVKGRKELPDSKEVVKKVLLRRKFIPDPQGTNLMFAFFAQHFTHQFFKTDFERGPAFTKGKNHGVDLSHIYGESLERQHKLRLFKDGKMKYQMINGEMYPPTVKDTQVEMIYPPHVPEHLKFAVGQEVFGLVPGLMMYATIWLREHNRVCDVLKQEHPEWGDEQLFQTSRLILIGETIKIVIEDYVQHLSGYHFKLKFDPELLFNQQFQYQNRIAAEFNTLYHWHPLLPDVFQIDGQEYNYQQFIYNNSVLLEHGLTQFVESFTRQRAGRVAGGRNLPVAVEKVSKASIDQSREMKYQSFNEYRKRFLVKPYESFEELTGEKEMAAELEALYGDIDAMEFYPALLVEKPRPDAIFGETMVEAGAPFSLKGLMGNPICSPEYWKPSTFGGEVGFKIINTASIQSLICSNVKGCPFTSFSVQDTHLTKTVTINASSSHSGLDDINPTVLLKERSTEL

A short description of data set [1]: Dissociation constant (pKa). It counts as physicochemical.
Data set [2] can be described thus: Partition coefficient (logD7.4). Particulars: octanol/water, pH 7.4.

Description for Cyclooxygenase: In vitro inhibition of bovine prostaglandin G/H synthase, using bovine seminal vesicle microsomal preparations; IC50 in umol/L
Description for Rattus norvegicus: Inhibition of inflammatory hind paw edema, induced by Mycobacterium butyricum in rats; ED40 in umol/kg po

Regarding `O=C(O)Cc1ccccc1Nc1cc(Cl)cc(Cl)c1`, at Cyclooxygenase, the “log IC50” value stood at 1.9. The pKa in data set [1] worked out at 4.31. The logD in data set [2] is 1.98. For the same compound, the “Log 1/ED40” value in the data set filed under Rattus norvegicus is reported as -2.23.
For the compound `Cc1cccc(Nc2ccccc2CC(=O)O)c1C`, the “log IC50” value at Cyclooxygenase is 0.3. In data set [2], the pH-dependent lipophilicity (logD) stood at 1.03. In the data set filed under Rattus norvegicus, the “Log 1/ED40” value was -1.59.
Consider `O=C(O)Cc1ccccc1Nc1c(Cl)cc(O)cc1Cl` [4'-HYDROXY-DICLOFENAC], for which the “log IC50” value on Cyclooxygenase is listed as 2.15. This compound came in with a pKa in data set [1] of 4.4. The compound further yielded a log distribution coefficient (logD) in data set [2] of 0.7. Further, in the data set filed under Rattus norvegicus, the “Log 1/ED40” value is -0.98.
With `COc1ccc2c(c1)c(CC(=O)O)c(C)n2C(=O)c1ccc(Cl)cc1` [INDOMETHACIN], in data set [2], the logD was determined as 1.
As for `Cc1cc(C)c(C)c(Nc2ccccc2CC(=O)O)c1C`, on Cyclooxygenase, the “log IC50” value is given as 0.78. In data set [1], this compound registered a pKa of 4.2. This compound also displayed a pH-dependent lipophilicity (logD) in data set [2] of 1.95. In addition, the “Log 1/ED40” value in the data set listed under Rattus norvegicus is listed as -1.25.
The corresponding values for `O=C(O)Cc1ccccc1Nc1ccc(Cl)c(Cl)c1` are 2.15, 4.3, 1.8 and -2.53.
As to `O=C(O)Cc1c(Br)cccc1Nc1c(Cl)cccc1Cl`, the “log IC50” value at Cyclooxygenase was 1.18. The compound further returned a logD in data set [2] of 1.87. For the same compound, in the data set listed under Rattus norvegicus, the “Log 1/ED40” value is reported as -3.43.
In the case of `COc1cc(Cl)c(Nc2ccccc2CC(=O)O)c(Cl)c1`, at Cyclooxygenase, the “log IC50” value is 0. In data set [1], this compound returned a pKa of 4.2. This compound displayed a logD in data set [2] of 1.24. For the same compound, the “Log 1/ED40” value in the data set filed under Rattus norvegicus is -0.49.
In the case of `O=C([O-])Cc1ccccc1Nc1c(F)cccc1Cl.[Na+]`, the “log IC50” value at Cyclooxygenase amounted to 1.75. The log distribution coefficient (logD) in data set [2] stood at 0.56. For the same compound, the “Log 1/ED40” value in the data set listed under Rattus norvegicus is -0.8.
As for `O=C(O)Cc1cc(O)ccc1Nc1c(Cl)cccc1Cl` [5-HYDROXY-DICLOFENAC], the “log IC50” value at Cyclooxygenase turned out to be 3.35. In data set [1], the pKa was found to be 4.22. The same compound yielded a pH-dependent lipophilicity (logD) in data set [2] of 0.76. The “Log 1/ED40” value in the data set listed under Rattus norvegicus is recorded as -0.98.
Consider `O=C(O)Cc1ccccc1Nc1c(Cl)ccc(O)c1Cl` [3'-HYDROXY-DICLOFENAC], for which the “log IC50” value on Cyclooxygenase was 1. Also, in data set [2], the pH-dependent lipophilicity (logD) came out at 0.72. The “Log 1/ED40” value in the data set listed under Rattus norvegicus is -1.51.
On to `COc1ccc(Cl)c(Nc2ccccc2CC(=O)O)c1Cl`, for which the “log IC50” value at Cyclooxygenase was 1.04. The same compound displayed a pKa in data set [1] of 3.95. This compound also came in with a pH-dependent lipophilicity (logD) in data set [2] of 1.18. In the data set filed under Rattus norvegicus, the “Log 1/ED40” value is recorded as -0.96.
The corresponding values for `Cc1cccc(Cl)c1Nc1ccccc1CC(=O)O` are 0, 4.2, 1.17 and -0.74.
As to `O=C(O)Cc1cc(O)ccc1Nc1c(Cl)cc(O)cc1Cl` [4',5-DIHYDROXY-DICLOFENAC], on Cyclooxygenase, the “log IC50” value is given as 3.04. For the same compound, the logD in data set [2] was 0.27. In the data set listed under Rattus norvegicus, the “Log 1/ED40” value was -2.78.
`O=C(O)Cc1ccccc1Nc1ccc(Cl)cc1Cl`: on Cyclooxygenase, the “log IC50” value was determined as 1.85. The compound further gave a logD in data set [2] of 1.33. The “Log 1/ED40” value in the data set listed under Rattus norvegicus was -1.23.
The corresponding values for `O=C([O-])Cc1cc(F)ccc1Nc1c(Cl)cc(F)cc1Cl.[Na+]` are 0.25, 1.62 and 0.25.
For `Cc1cccc(C)c1Nc1ccccc1CC(=O)O`, the “log IC50” value at Cyclooxygenase worked out at 0.78. This compound showed a pKa in data set [1] of 4.07. In data set [2], this compound registered a log distribution coefficient (logD) of 1.21. In addition, the “Log 1/ED40” value in the data set filed under Rattus norvegicus is -0.29.
Take `Cc1cccc(Nc2ccccc2CC(=O)O)c1Cl`: the “log IC50” value at Cyclooxygenase amounted to 1.3. For the same compound, the logD in data set [2] was determined as 1.59. Further, in the data set listed under Rattus norvegicus, the “Log 1/ED40” value was -0.26.
The corresponding values for `O=C([O-])Cc1ccccc1Nc1ccc(F)cc1F.[Na+]` are 2.01, 0.55 and -2.85.
The matching figures for `COc1c(O)cc(Cl)c(Nc2ccccc2CC(=O)O)c1Cl`: 1.86, 0.51 and -2.47.
The matching figures for `O=C([O-])Cc1ccccc1Nc1c(Cl)cc(F)cc1Cl.[Na+]`: 0.05, 1.27 and -0.47.
Consider `O=C([O-])Cc1ccccc1Nc1c(F)cccc1F.[Na+]`, for which, on Cyclooxygenase, the “log IC50” value is reported as 2.36. Besides, the pKa in data set [1] was 4.09. Moreover, the logD in data set [2] was 0.26. In the data set listed under Rattus norvegicus, the “Log 1/ED40” value was -2.24.
On to `O=C([O-])Cc1cc(Cl)ccc1Nc1c(Cl)cccc1Cl.[Na+]`, for which, on Cyclooxygenase, the “log IC50” value came to 0.1. In data set [2], the logD amounted to 1.97. The “Log 1/ED40” value in the data set listed under Rattus norvegicus was 0.07.
Consider `O=C(O)Cc1ccccc1Nc1cc(Cl)ccc1Cl`, for which, at Cyclooxygenase, the “log IC50” value is 2. This compound yielded a pKa in data set [1] of 4.1. In data set [2], the logD amounted to 1.64. The “Log 1/ED40” value in the data set listed under Rattus norvegicus is reported as -1.01.
Consider `O=C([O-])Cc1c(O)cccc1Nc1c(Cl)cccc1Cl.[Na+]`, for which the “log IC50” value on Cyclooxygenase is 2.33. Besides, in data set [1], the pKa stood at 4.48. In addition, the log distribution coefficient (logD) in data set [2] worked out at 1.73.
The corresponding values for `O=C(O)Cc1ccccc1Nc1cccc(Cl)c1Cl` are 1, 4.2 and 1.66.
Regarding `O=C([O-])Cc1ccccc1Nc1c(Cl)cccc1Br.[Na+]`, the “log IC50” value on Cyclooxygenase is given as 0.28. Also, the pKa in data set [1] was 4.2. The compound also registered a logD in data set [2] of 1.44. Besides, the “Log 1/ED40” value in the data set listed under Rattus norvegicus is recorded as -0.14.
The corresponding values for `O=C([O-])Cc1cc(F)ccc1Nc1c(Cl)cccc1Cl.[Na+]` are 0.13, 4.02, 1.48 and 0.05.
The matching figures for `O=C(O)Cc1ccccc1Nc1c(Cl)cccc1I`: 0.3, 4.24, 1.64 and -0.11.
The matching figures for `COc1cc(Cl)c(Nc2ccccc2CC(=O)O)c(Cl)c1O` [3'-HYDROXY-4'-METHOXY-DICLOFENAC]: 2.47, 4.13, 0.25 and -2.47.
For `Cc1ccc(Cl)c(Nc2ccccc2CC(=O)[O-])c1Cl.[Na+]`, in the data set listed under Rattus norvegicus, the “Log 1/ED40” value is recorded as -0.65.
Take `O=C(O)Cc1ccccc1Nc1ccccc1`: the “log IC50” value at Cyclooxygenase was found to be 2.46. The pKa in data set [1] was 4.1. The compound further had a pH-dependent lipophilicity (logD) in data set [2] of 0.19. Moreover, the “Log 1/ED40” value in the data set listed under Rattus norvegicus is on record as -2.94.
Turning to `O=C(O)Cc1ccccc1Nc1ccccc1Cl`, the “log IC50” value at Cyclooxygenase is 2.31. This compound also gave a pH-dependent lipophilicity (logD) in data set [2] of 0.91. Moreover, the “Log 1/ED40” value in the data set listed under Rattus norvegicus is -1.76.
With `Cc1c(Cl)cccc1Nc1ccccc1CC(=O)O`, on Cyclooxygenase, the “log IC50” value came out at 1.04. In data set [1], this compound displayed a pKa of 4.3. Besides, the pH-dependent lipophilicity (logD) in data set [2] stood at 1.54. In addition, the “Log 1/ED40” value in the data set listed under Rattus norvegicus was -0.86.
As for `Cc1cc(C)c(C)c(Nc2ccc(Cl)cc2CC(=O)O)c1C`, the “log IC50” value on Cyclooxygenase was determined as 1.82. The compound further gave a pH-dependent lipophilicity (logD) in data set [2] of 2.93. Further, in the data set listed under Rattus norvegicus, the “Log 1/ED40” value was -1.2.
In the case of `CCc1cccc(CC)c1Nc1ccccc1CC(=O)O`, on Cyclooxygenase, the “log IC50” value was 1.83. In data set [2], the pH-dependent lipophilicity (logD) is 1.91. The “Log 1/ED40” value in the data set listed under Rattus norvegicus was -1.55.
